Where a SMILES comes first, the peptide text is derived from it. [ ]: non-standard residue; d: D form. The star is where a group is joined. pNA = O=[N+]([O-])c1ccc(N*)cc1; Tos = Cc1ccc(S(=O)(=O)*)cc1
Tests used:
Kallikrein (KL) = Kallikrein (KL) (Sus scrofa, UniProt P00752); type: biochemical, Pig; settings: pH 7.9, 37° C., 10 minutes, 1.0 BAEE-U/ml; for Selectivity KL, absorbance (O.D.) at 645 nm: TABLE 4, CHA substrates, So = 0.54; for Selectivity KL, absorbance (O.D.) at 405 nm: TABLE 3, PNA substrates, So = 0.54 mmole/l
Protocol: (§1) The specificities of the novelly synthesized substrates were tested by reacting them with various enzymes respectively.
(§2) (1) Substrate solution concentration: 35 mmole/liter H2 O
(§3) (2) Buffer: Tris-hydrochloric acid buffer 50 mmole/l, NaCl 150 mmole/l (0.875%) was employed, and the pH for reaction was as follows depending on the enzyme.
(§4) 2,6-Xylenol 7.0 mmole+NaIO4 1.5 mmole/0.2N KOH
(§5) 0.5 ml of the buffer solution and 0.05 ml of the enzyme reagent were taken into a silicon-treated hard glass test tube or a plastic test tube, and preheated in a constant temperature bath at 37° C. for 5 minutes. Thereafter, 0.1 ml of the substrate solution was added to effect the enzymatic reaction at 37° C. for 10 minutes. Exactly after 10 minutes, 2.5 ml of the reaction terminating solution or the terminating and color developing reagent solution was added to terminate the enzymatic reaction, and after allowing to stand at 25° C. for 10 minutes, the absorbance at 405 nm or 645 nm was measured, in which [drawing 49]

plasmin (pig) = plasmin (pig) (Sus scrofa, UniProt P06867); assay: Km, Vmax and Vmax/Km of substrates for plasmin (pig); type: biochemical, Porcine (pig); settings: for Vmax (× 10^-7): TABLE 2, CHA substrates, plasmin (pig), 2,6-xylenol 615 nm; for Vmax (× 10^7): 405 nm
Description: The substrates produced by the above examples were used in the measurement of plasmin as follows: The principle of this measurement comprises quantitatively analyzing the decomposition product p-nitroaniline or 3-carboxy-4-hydroxyaniline produced by the enzymatic hydrolysis, by measuring the absorbance (O.D.) directly at 405 nm in the case of p-nitroaniline and, in the case of the 3-carboxy-4-hydroxyaniline at 615 nm after condensing it with 2,6-xylenol in the presence of an oxidant to develop a color.
For the measurements of these constants, the following method is adopted:
The enzyme and the substrate are mixed in a buffer solution and subjected to the hydrolysis for 30 seconds. The concentration of the substrate [S] is changed and the enzyme concentration is maintained constant. By measuring the absorbance (O.D.), the initial velocity of the hydrolysis can be determined. Where 1/V is plotted as a function of 1/[S], there is obtained a Lineweaver and Burk's linea from which graph the Vmax and Km can be determined.

Plasmin (PL) = Plasmin (PL) (Sus scrofa, UniProt P06867); type: biochemical, Pig; settings: pH 7.4, 37° C., 10 minutes, 0.32 CU/ml; for Selectivity PL, absorbance (O.D.) at 645 nm: TABLE 4, CHA substrates, So = 0.54; for Selectivity PL, absorbance (O.D.) at 405 nm: TABLE 3, PNA substrates, So = 0.54 mmole/l
Protocol: as §2, §3
Plasmin Pig Sigma (U.S.A.)
as §5

Thrombin (TH) = Thrombin (TH) (Bos taurus, UniProt P00735); type: biochemical, Cow; settings: pH 8.4, 37° C., 10 minutes, 1.0 NIH/ml; for Selectivity TH, absorbance (O.D.) at 645 nm: TABLE 4, CHA substrates, So = 0.54; for Selectivity TH, absorbance (O.D.) at 405 nm: TABLE 3, PNA substrates, So = 0.54 mmole/l
Protocol: as §1, §2, §3, §4, §5

Factor-Xa (FXa) = Factor-Xa (FXa) (Bos taurus, UniProt P00743); type: biochemical, Cow; settings: pH 8.4, 37° C., 10 minutes, 0.4 U/ml; for Selectivity FXa, absorbance (O.D.) at 645 nm: TABLE 4, CHA substrates, So = 0.54; for Selectivity FXa, absorbance (O.D.) at 405 nm: TABLE 3, PNA substrates, So = 0.54 mmole/l
Protocol: as §1, §2, §3, §4, §5

Urokinase (UK) = Urokinase (UK) (Homo sapiens, UniProt P00749); type: biochemical; settings: pH 8.2, 37° C., 10 minutes, 1000 IU/ml; for Selectivity UK, absorbance (O.D.) at 645 nm: TABLE 4, CHA substrates, So = 0.54; for Selectivity UK, absorbance (O.D.) at 405 nm: TABLE 3, PNA substrates, So = 0.54 mmole/l
Protocol: as §1, §2, §3, §4, §5

[1] = TABLE 2, V/Km of each sample divided by that of S2251 (so in the source)
[2] = TABLE 1, PNA substrates, plasmin (pig)
[3] = TABLE 1, V/Km of each sample divided by that of S2251

Chain of Thrombin (TH) (P00735 44-625): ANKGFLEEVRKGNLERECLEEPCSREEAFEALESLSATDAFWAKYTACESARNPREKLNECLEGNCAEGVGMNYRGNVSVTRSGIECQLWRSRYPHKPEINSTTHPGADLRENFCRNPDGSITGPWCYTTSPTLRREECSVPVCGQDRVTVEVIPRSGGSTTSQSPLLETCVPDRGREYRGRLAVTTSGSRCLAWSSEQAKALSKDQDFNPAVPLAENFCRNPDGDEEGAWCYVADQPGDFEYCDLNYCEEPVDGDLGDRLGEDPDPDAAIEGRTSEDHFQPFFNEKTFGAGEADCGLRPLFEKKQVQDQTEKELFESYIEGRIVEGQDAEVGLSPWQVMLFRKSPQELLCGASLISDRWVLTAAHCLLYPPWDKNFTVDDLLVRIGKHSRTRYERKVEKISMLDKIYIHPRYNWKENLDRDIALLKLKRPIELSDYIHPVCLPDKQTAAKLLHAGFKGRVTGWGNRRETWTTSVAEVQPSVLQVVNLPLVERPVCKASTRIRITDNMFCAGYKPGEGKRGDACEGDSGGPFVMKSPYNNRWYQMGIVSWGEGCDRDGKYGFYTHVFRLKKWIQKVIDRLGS
Chain of Kallikrein (KL) (P00752 8-246): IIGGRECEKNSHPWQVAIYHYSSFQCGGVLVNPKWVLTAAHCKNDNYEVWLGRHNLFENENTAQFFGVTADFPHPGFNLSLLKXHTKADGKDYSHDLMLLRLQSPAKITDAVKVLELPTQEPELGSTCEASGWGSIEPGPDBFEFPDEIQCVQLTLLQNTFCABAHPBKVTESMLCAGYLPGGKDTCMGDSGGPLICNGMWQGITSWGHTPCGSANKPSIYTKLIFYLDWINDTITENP
Chain of Factor-Xa (FXa) (P00743 41-180): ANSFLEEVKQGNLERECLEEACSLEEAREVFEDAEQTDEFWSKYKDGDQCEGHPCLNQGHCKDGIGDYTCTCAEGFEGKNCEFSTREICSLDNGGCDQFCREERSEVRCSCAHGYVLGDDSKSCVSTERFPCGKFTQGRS
Chain of Factor-Xa (FXa) (P00743 234-492): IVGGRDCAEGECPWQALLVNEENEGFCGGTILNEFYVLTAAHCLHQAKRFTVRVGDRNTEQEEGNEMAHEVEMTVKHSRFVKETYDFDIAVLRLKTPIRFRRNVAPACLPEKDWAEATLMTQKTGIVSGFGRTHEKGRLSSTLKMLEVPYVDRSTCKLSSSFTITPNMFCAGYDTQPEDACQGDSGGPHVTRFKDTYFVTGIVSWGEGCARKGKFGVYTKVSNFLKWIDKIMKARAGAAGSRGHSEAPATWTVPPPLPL
Chain of plasmin (pig) (P06867 97-809): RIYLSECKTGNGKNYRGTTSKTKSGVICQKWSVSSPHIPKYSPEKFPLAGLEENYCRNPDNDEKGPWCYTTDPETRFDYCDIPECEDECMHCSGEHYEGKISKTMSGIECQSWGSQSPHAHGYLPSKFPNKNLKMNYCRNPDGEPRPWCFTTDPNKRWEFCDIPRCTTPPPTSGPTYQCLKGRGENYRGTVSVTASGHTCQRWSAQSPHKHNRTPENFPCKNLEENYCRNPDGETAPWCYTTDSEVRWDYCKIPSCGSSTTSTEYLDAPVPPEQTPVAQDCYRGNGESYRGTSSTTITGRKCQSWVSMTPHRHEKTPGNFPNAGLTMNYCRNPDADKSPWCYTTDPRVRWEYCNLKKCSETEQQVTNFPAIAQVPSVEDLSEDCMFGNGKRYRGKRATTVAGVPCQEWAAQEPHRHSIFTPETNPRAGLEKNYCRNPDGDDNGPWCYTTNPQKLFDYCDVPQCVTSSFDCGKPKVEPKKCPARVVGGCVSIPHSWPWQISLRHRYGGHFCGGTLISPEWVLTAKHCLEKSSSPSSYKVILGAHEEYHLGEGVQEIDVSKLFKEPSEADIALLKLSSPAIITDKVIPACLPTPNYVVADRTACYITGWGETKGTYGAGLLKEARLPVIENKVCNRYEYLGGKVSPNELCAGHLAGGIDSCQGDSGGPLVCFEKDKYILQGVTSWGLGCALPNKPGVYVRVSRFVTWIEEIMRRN
Chain of Plasmin (PL) (P06867 97-809): as above

Selectivity KL, absorbance (O.D.) at 645 nm (Kallikrein (KL)) [O.D.]	Vmax (× 10^-7) (plasmin (pig))	Relative ratio (plasmin (pig); [1])	Selectivity PL, absorbance (O.D.) at 645 nm (Plasmin (PL)) [O.D.]	Selectivity TH, absorbance (O.D.) at 645 nm (Thrombin (TH)) [O.D.]	Selectivity FXa, absorbance (O.D.) at 645 nm (Factor-Xa (FXa)) [O.D.]	Selectivity UK, absorbance (O.D.) at 645 nm (Urokinase (UK)) [O.D.]	Structure (SMILES)	Selectivity KL, absorbance (O.D.) at 405 nm (Kallikrein (KL)) [O.D.]	Vmax (× 10^7) (plasmin (pig); [2])	Relative ratio (plasmin (pig); [3])	Selectivity PL, absorbance (O.D.) at 405 nm (Plasmin (PL)) [O.D.]	Selectivity TH, absorbance (O.D.) at 405 nm (Thrombin (TH)) [O.D.]	Selectivity FXa, absorbance (O.D.) at 405 nm (Factor-Xa (FXa)) [O.D.]	Selectivity UK, absorbance (O.D.) at 405 nm (Urokinase (UK)) [O.D.]	Vmax (× 10^-6) [mole/min/Cu] (plasmin (pig); Porcine Plasmin, comparison table in description)	V/Km (× 10^-3) (plasmin (pig); [2])
0.004	8.266 × 10^-7	31.117	0.118	0.001	0.002	0.001	CCCC(=O)NCCCC[C@@H](N)C(=O)N[C@@H](Cc1ccccc1)C(=O)N[C@@H](CCCCN)C(=O)Nc1ccc(O)c(C(=O)O)c1 [NPC-19]	–	–	–	–	–	–	–	–	–
0.019	40.725 × 10^-7	74.040	0.467	0	0.006	0.004	NCCCC[C@H](NC(=O)[C@H](Cc1ccccc1)NC(=O)[C@H](N)CCCCNC(=O)OCc1ccccc1)C(=O)Nc1ccc(O)c(C(=O)O)c1 [NPC-20]	–	–	–	–	–	–	–	–	–
0.010	6.802 × 10^-7	17.414	0.093	0	0.003	0.004	CC(C)OC(=O)C[C@@H](N)C(=O)N[C@@H](Cc1ccccc1)C(=O)N[C@@H](CCCCN)C(=O)Nc1ccc(O)c(C(=O)O)c1 [NPC-21]	–	–	–	–	–	–	–	–	–
0.006	15.803 × 10^-7	43.613	0.185	0	0	0	CS(=O)(=O)NCCCC[C@@H](N)C(=O)N[C@@H](Cc1ccccc1)C(=O)N[C@@H](CCCCN)C(=O)Nc1ccc(O)c(C(=O)O)c1 [NPC-25]	–	–	–	–	–	–	–	–	–
–	–	–	–	–	–	–	Cc1ccc(S(=O)(=O)NCCCC[C@@H](N)C(=O)N[C@@H](CC(C)C)C(=O)N[C@@H](CCCCN)C(=O)Nc2ccc([N+](=O)[O-])cc2)cc1 [NPN-1, HD-Lys(Tos)LeuLysPNA.2HBr] (H-[dK](Tos)-Leu-Lys-pNA)	0.006	63.600 × 10^7	2.937	0.457	0	0.003	0.001	–	–
–	–	–	–	–	–	–	Cc1ccc(S(=O)(=O)NCCCC[C@@H](N)C(=O)N[C@@H](Cc2ccccc2)C(=O)N[C@@H](CCCCN)C(=O)Nc2ccc([N+](=O)[O-])cc2)cc1 [NPN-2, H-D-Lys(ToS)-Phe-Lys PNA.2HBr] (H-[dK](Tos)-Phe-Lys-pNA)	0.004	47.968 × 10^7	26.517	0.383	0	0.003	0.001	4.8 × 10^-6 mole/min/Cu	303.595 × 10^-3
–	–	–	–	–	–	–	NCCCC[C@H](NC(=O)[C@H](Cc1ccccc1)NC(=O)[C@H](N)CCC(=O)OC1CCCCC1)C(=O)Nc1ccc([N+](=O)[O-])cc1 [NPN-3, HD-Glu(CHN)PheLysPNA.2HBr] (HELM PEPTIDE1{[dE].F.K.[O=[N+]([O-])c1ccc(N[*:1])cc1]}|CHEM1{[C1CCC(O[*:1])CC1]}$PEPTIDE1,CHEM1,1:R3-1:R1$$$V2.0)	0.009	65.287 × 10^7	17.726	0.466	0	0.003	0.001	–	–
–	–	–	–	–	–	–	NCCCC[C@H](NC(=O)[C@H](Cc1ccccc1)NC(=O)[C@H](N)CCC(=O)NCCc1ccccc1)C(=O)Nc1ccc([N+](=O)[O-])cc1 [NPN-4] (HELM PEPTIDE1{[dE].F.K.[O=[N+]([O-])c1ccc(N[*:1])cc1]}|CHEM1{[c1ccc(CCN[*:1])cc1]}$PEPTIDE1,CHEM1,1:R3-1:R1$$$V2.0)	0.010	23.895 × 10^7	7.481	0.330	0.001	0.006	0.002	–	–
–	–	–	–	–	–	–	NCCCC[C@H](NC(=O)[C@H](Cc1ccccc1)NC(=O)[C@H](N)CCC(=O)NCCCc1ccccc1)C(=O)Nc1ccc([N+](=O)[O-])cc1 [NPN-5]	0.014	24.892 × 10^7	5.534	0.525	0	0.005	0.001	–	–
–	–	–	–	–	–	–	NCCCC[C@H](NC(=O)[C@H](Cc1ccccc1)NC(=O)[C@H](N)CCC(=O)NCCCCc1ccccc1)C(=O)Nc1ccc([N+](=O)[O-])cc1 [NPN-6]	0.018	28.209 × 10^7	5.427	0.646	0	0.003	0.012	–	–
–	–	–	–	–	–	–	Cc1ccc(CCNC(=O)CC[C@@H](N)C(=O)N[C@@H](Cc2ccccc2)C(=O)N[C@@H](CCCCN)C(=O)Nc2ccc([N+](=O)[O-])cc2)cc1 [NPN-7]	0.011	20.908 × 10^7	4.638	0.427	0.001	0.008	0.002	–	–
–	–	–	–	–	–	–	NCCCC[C@H](NC(=O)[C@H](Cc1ccccc1)NC(=O)[C@H](N)CCC(=O)OCCc1ccccc1)C(=O)Nc1ccc([N+](=O)[O-])cc1 [NPN-8]	0.014	28.542 × 10^7	8.019	0.181	0	0.005	0.003	–	–
–	–	–	–	–	–	–	Cc1ccc(CCOC(=O)CC[C@@H](N)C(=O)N[C@@H](Cc2ccccc2)C(=O)N[C@@H](CCCCN)C(=O)Nc2ccc([N+](=O)[O-])cc2)cc1 [NPN-9]	0.016	30.202 × 10^7	6.171	0.299	0	0.006	0.002	–	–

Structure (SMILES)	Selectivity KL, absorbance (O.D.) at 645 nm (Kallikrein (KL)) [O.D.]	Vmax (× 10^-7) (plasmin (pig))	Relative ratio (plasmin (pig); [1])	Selectivity PL, absorbance (O.D.) at 645 nm (Plasmin (PL)) [O.D.]	Selectivity TH, absorbance (O.D.) at 645 nm (Thrombin (TH)) [O.D.]	Selectivity FXa, absorbance (O.D.) at 645 nm (Factor-Xa (FXa)) [O.D.]	Selectivity UK, absorbance (O.D.) at 645 nm (Urokinase (UK)) [O.D.]	Selectivity KL, absorbance (O.D.) at 405 nm (Kallikrein (KL)) [O.D.]	Vmax (× 10^7) (plasmin (pig); [2])	Relative ratio (plasmin (pig); [3])	Selectivity PL, absorbance (O.D.) at 405 nm (Plasmin (PL)) [O.D.]	Selectivity TH, absorbance (O.D.) at 405 nm (Thrombin (TH)) [O.D.]	Selectivity FXa, absorbance (O.D.) at 405 nm (Factor-Xa (FXa)) [O.D.]	Selectivity UK, absorbance (O.D.) at 405 nm (Urokinase (UK)) [O.D.]	Vmax (× 10^-6) [mole/min/Cu] (plasmin (pig); Porcine Plasmin, comparison table in description)	V/Km (× 10^-3) (plasmin (pig); [2])
NCCCC[C@H](NC(=O)[C@H](Cc1ccccc1)NC(=O)[C@H](N)CC(=O)OC1CCCCC1)C(=O)Nc1ccc(O)c(C(=O)O)c1 [NPC-22]	0.023	17.991 × 10^-7	42.715	0.213	0	0.015	0.026	–	–	–	–	–	–	–	–	–
NCCCC[C@H](NC(=O)[C@H](Cc1ccccc1)NC(=O)[C@H](N)CCC(=O)NCCc1ccccc1)C(=O)Nc1ccc(O)c(C(=O)O)c1 [NPC-23]	0.009	18.963 × 10^-7	43.045	0.223	0	0.005	0.004	–	–	–	–	–	–	–	–	–
Cc1ccc(CCNC(=O)CC[C@@H](N)C(=O)N[C@@H](Cc2ccccc2)C(=O)N[C@@H](CCCCN)C(=O)Nc2ccc(O)c(C(=O)O)c2)cc1 [NPC-24]	0.009	21.637 × 10^-7	46.748	0.279	0	0.005	0.004	–	–	–	–	–	–	–	–	–
